# Data published in patent publication US20240207216A1, “COMPOSITIONS AND METHOD FOR TREATING GUT PERMEABILITY CAUSED BY HYDROGEN SULFIDE PRODUCING BACTERIA” (UNM RAINFOREST INNOVATIONS, priority 2022, published 2024).
# What was measured:
# Assay type in all cases: cell-based, murine
# p-p70S6K = assay: DSV-induced p-P70S6K, Western blot in RAW cells; conditions: 1 h before DSV 4 h, DSV alone 1.96±0.20
# Method: (§1) RAW 264.7 murine macrophage-like cells were grown in DMEM+10% FBS without any use of antibiotics or antimycotics. Cells were grown at 37° C. in a humidified incubator with 5% CO2. Prior to the day of infection, 8×10^5 cells were plated in a six-well plate and infected with DSV at multiplicity of infection 20 (MOI 20) for various times. For drug treatments, cells were incubated with LY294002 at 10 μM or 50 μM for one hour followed by DSV infection for 30 minutes or four hours. For TL2-C29 treatment, cells were incubated with the inhibitor at 200 μM for three hours followed by infection with DSV for four hours.
# (§2) Cells were lysed in Lysis buffer containing protease and phosphatase inhibitors (Thermo Fisher Scientific, Inc., Waltham, MA) for 20 minutes at 4° C. Lysates were centrifuged at 12,000 rpm for five mins at 4° C. and supernatants were collected. Protein concentration in the supernatants was determined with Bradford reagent (Bio-Rad Laboratories, Inc., Hercules, CA). 50 μg of protein samples were run on SDS-PAGE (4-20% tris-glycine) and transferred to nitrocellulose membranes. Membranes were blocked in 5% milk in PBS-T (0.1% Tween 20) for 30 minutes followed by overnight incubation in primary antibodies in cold room. […]
# iNOS = assay: DSV-induced iNOS expression, Western blot in RAW cells; conditions: 1 h before DSV 4 h, DSV alone 23.54±5.39
# Method: as §1
# (§3) Cells were lysed in Lysis buffer containing protease and phosphatase inhibitors (Thermo Fisher Scientific, Inc., Waltham, MA) for 20 minutes at 4° C. Lysates were centrifuged at 12,000 rpm for five mins at 4° C. and supernatants were collected. Protein concentration in the supernatants was determined with Bradford reagent (Bio-Rad Laboratories, Inc., Hercules, CA). 50 μg of protein samples were run on SDS-PAGE (4-20% tris-glycine) and transferred to nitrocellulose membranes. Membranes were blocked in 5% milk in PBS-T (0.1% Tween 20) for 30 minutes followed by overnight incubation in primary antibodies in cold room. All antibodies except iNOS were purchased from Cell Signaling Technology (Danvers, MA): Actin (4970), p-AktS473(4060), p-Akt T308(13038), Akt (9272), p-P70S6K (9205), P70S6K (2708, TNF-α (19948). iNOS antibody was purchased from Abcam (Cambridge United Kingdom). Antibodies were diluted as recommended by the manufacturer. The following day, blots were washed with PBS-T and incubated with secondary antibodies (Cell Signaling Technology, Danvers, MA) at room temperature for one hour (dilution of 1:2000) and developed using enhanced chemiluminescence HRP signal (Thermo Fisher Scientific, Inc., Waltham, MA).
# (§4) All graphs were generated using PRISM 9.4.1 GraphPad Software Inc., San Diego, CA). Data is plotted as Mean±SEM relative to control. Each experiment was conducted at least three independent times. […]
# TNF-α = assay: DSV-induced cellular TNF-α expression, Western blot in RAW cells; conditions: 1 h before DSV 4 h, DSV alone 37.01±4.28
# Method: as §1, §3, §4
# p-Akt/Akt = assay: DSV-induced Akt phosphorylation, Western blot in RAW cells; conditions: 1 h before DSV 4 h, DSV alone 4.88±1.31
# Method: as §1, §3, §4
# secreted TNF-α = assay: DSV-induced secreted TNF-α, Western blot of RAW cell culture supernatant; conditions: 1 h before DSV 4 h, DSV alone 18.73±6.21
# Method: FIG. 12. LY294002 inhibits DSV-induced activation of PI3K/Akt/TNF pathway. (A) RAW cells were treated with LY at either 10 μM or 50 μM for one hour before infection with DSV for four hours. Cells were lysed and protein lysate was prepared. Fifty μg of protein lysate was separated on SDS-PAGE and analyzed for p-Akt, Akt, TNF, iNOS, p-p70S6K, and total p70S6K by Western blotting. Actin was used as a loading control. (B) Quantification of p-Akt-Akt Western blot. (C) Quantification of p-P70/P70 Western blot. (D) Quantification of TNF-α/actin Western blot. (E) Post-infection, RAW cell culture supernatant was collected and proteins were precipitated using ethanol precipitation. Proteins were resuspended in PBS and 50 μg of proteins were loaded on SDS-PAGE and secreted TNF-α was detected using TNF-α antibody. Actin was used as a loading control.
# as §1, §2
# p-p65 NF-κB = assay: DSV-induced phospho-p65 NF-κB, Western blot in RAW cells; conditions: 50 μM pre-treatment, DSV 30 minutes; DSV alone 3.54±0.59
# Method: FIG. 13. LY294002 inhibits DSV-induced activation of PI3K/Akt/TNF pathway. (A) Quantification of secreted TNF-α. (B) Cells were treated with LY at either 10 μM or 50 μM for one hour before infection with DSV for four hours. Protein lysate was analyzed for iNOS expression. (C) Cells were pretreated with or without LY 50 μM followed by infection with DSV for 30 minutes and protein samples were analyzed for p-p65 NF-κB and total NF-κB. (D) Blots were quantified by analyzing the ratio of p-NF-κB/NF-κB. Values were normalized and compared to control. Data represents Mean±SEM from at least three independent experiments. Values were normalized to control. One-way ANOVA was used to determine the statistical significance. Values were compared to DSV, with a post-hoc Dunnett's test. *p<0.05, **p<0.01, ***p<0.001.
# RAW 264.7 murine macrophage-like cells were grown in DMEM+10% FBS without any use of antibiotics or antimycotics. Cells were grown at 37° C. in a humidified incubator with 5% CO2. […]
# Cells were lysed in Lysis buffer containing protease and phosphatase inhibitors (Thermo Fisher Scientific, Inc., Waltham, MA) for 20 minutes at 4° C. […] Protein concentration in the supernatants was determined with Bradford reagent (Bio-Rad Laboratories, Inc., Hercules, CA). […]
smiles,measurement,setting,value
O=c1cc(N2CCOCC2)oc2c(-c3ccccc3)cccc12 [LY294002],"p-P70/P70, normalized to control",p-p70S6K; 10 μM,0.081±0.026
same,"p-P70/P70, normalized to control",p-p70S6K; 50 μM,0.088±0.029
same,"iNOS expression, normalized to control",iNOS; 10 μM,5.45±0.17
same,"iNOS expression, normalized to control",iNOS; 50 μM,2.28±0.58
same,"cellular TNF-α/actin, normalized to control",TNF-α; 10 μM,13.42±2.13
same,"cellular TNF-α/actin, normalized to control",TNF-α; 50 μM,6.044±2.139
same,"p-Akt/Akt, normalized to control",p-Akt/Akt; 10 μM,0.52±0.11
same,"p-Akt/Akt, normalized to control",p-Akt/Akt; 50 μM,0.40±0.09
same,"secreted TNF-α, normalized to control",secreted TNF-α; 10 μM,1.45±0.24
same,"secreted TNF-α, normalized to control",secreted TNF-α; 50 μM,1.34±0.57
same,"p-NF-κB/NF-κB (p-p65), normalized to control",p-p65 NF-κB,1.91±0.54
